# Experimental data as given in patent US20090317373A1, “Inhibition of the Anti-FVIII Immune Response” (Institut National De La Sante Et De La Recherche Medicale, priority 2005, published 2009).
# Legend:
# FVIII = FVIII (Homo sapiens, UniProt P00451); assay: One-stage clotting test, residual FVIII activity in normal human plasma; assay type: biochemical; details: normal human plasma incubated with mannan 2 hours at 37° C.; FIG. 5a
# Experimental: Normal human plasma was incubated with an identical volume of mannan ([…]) for 2 hours at 37° C. The residual FVIII activity was measured in a one-stage clotting test using human placental […] as an activator (Dade Behring Marburg GmbH, Marburg, Germany) and FVIII-depleted plasma (Dade Behring Marburg GmbH, Marburg, Germany) as a substrate and a fibrin timer (Sysmex CA500, Dade Behring). The dilutions were performed in Owren-Koller buffer (Diagnostica Stago, Asnieres, France).
# [1] = tested on: human DCs derived from monocytes; assay: In vitro internalization of fluorescent ligands by human DCs derived from monocytes (flow cytometry); assay type: cell-based
# Experimental: DCs were prepared from monocytes as described previously (29) with a change in the culture media. Briefly, mononucleated cells were isolated from heparinized leukoplatelet layers (“buffy coats”) from healthy adult donors by adhesion on plastic cell culture dishes in RPMI 1640 medium supplemented with 10% human AB serum, glutamine and antibiotics for 60 minutes. Non-adhering cells were removed by 3 gentle washings with the medium. The adhering monocytes were cultured in X-VIVO 15 medium (Cambrex Bio Sciences, Paris, France) supplemented with 1% human AB serum and antibiotics and in the presence of 500 IU/ml of recombinant human interleukin-4 (rhIL-4), R&D Systems (Lille, France) and 1,000 IU/ml of recombinant human granulocyte macrophage colony-stimulating factor (rhGM-CSF), Immunotools (Friesoythe, Germany). Half of the medium, comprising all the supplements, was replaced every two days. After culture for 5 days, the non-adhering cells and those with little adhesion, corresponding to the fraction enriched in DC, were harvested, washed and used for subsequent experiments.
# Whole recombinant human FVIII (1,000 IU, Kogenate, Bayer) or B domain-deleted recombinant human FVIII (FVIII-BDD) (1,000 IU, Refacto, Wyeth) were solubilized in water and dialyzed against bicarbonate buffer (pH 9.2) containing CaCl2, 5 mM at 4° C., followed by coupling to fluorescein 5-isothiocyanate (isomer I, Sigma-Aldrich, Saint Quentin Fallavier, France) for 7-8 hours at 4° C. The labelled FVIII was then dialyzed against RPMI 1640 medium to remove non-coupled FITC. The FVIII-FITC was quantified by the Bradford method using bovine serum albumin as the standard.
# The DCs obtained in Example 1 (0.4×10^5 cells/well of a 96-well plate with 100 μl/well) were incubated with various doses (0.029, 0.057, 0.143 and 0.358 μM) of fluorescent conjugated ligands (FVIII-FITC, BDD-FVIII-FITC) obtained in Example 2 in X-VIVO medium for 0, 15, 60 and 120 min at 4° C. or at 37° C. After the incubation period, the cells were washed with cold PBS and analyzed by flow cytometry. To investigate the involvement of receptors in the internalization, the cells were preincubated for 30 min at 37° C. with […] and 1 mg/ml of mannan (Sigma-Aldrich, Saint Quentin Fallavier, France) before the addition of ligands conjugated to fluorescein. In addition to FVIII-FITC and FVIII-BDD-FITC, human α2-macroglobulin-MA (α2M) conjugated to FITC from Biomac (Leipzig, Germany), dextran-FITC (molecular weight 40,000) from Molecular Probes (Leiden, The Netherlands) and Lucifer yellow (LY-CH) from Sigma-Aldrich were used. The investigation of the internalization of FVIII was also carried out in the presence of 20 μg/ml of anti-mannose receptor monoclonal antibody (PAM-1, isotype IgG1) or anti-DC-SIGN monoclonal antibody ((AZN-D1, isotype IgG1) or mouse IgGλ,k conjugated to PE-Cy (BD Pharmingen, France). To investigate whether DC-SIGN is involved in the endocytosis of FVIII, the B lymphocyte line HD-420 transformed by wild-type EBV and transfected with DC-SIGN or not transfected was incubated with various concentrations of FVIII-FITC (0, 0.036, 0.072 and 0.143 μM) for 2 hours in RPMI 1640 medium supplemented with 10% FCS (foetal calf serum) and antibiotics. The analysis was carried out as for the DCs.
# autologous CD4+ T cells = assay: In vitro proliferation of autologous CD4+ T cells (tritiated thymidine); assay type: cell-based, human; details: DCs incubated with mannan (1 mg/ml) before FVIII; FIG. 4a
# Experimental: The DCs of Example 1 were incubated with mannan (1 mg/ml) for 30 min at 37° C. FVIII dialyzed against RPMI 1640 medium (Kogenate, Bayer) was added (40 μg/ml, 0.143 μM) for 2 hours. The cells were then washed and incubated with LPS (1 μg/0.5 million cells) in complete medium for 48 hours. The cells were then washed and cultured (RPMI 1640 medium, supplemented with 10% male human AB serum, in 96-well cell culture plates with a round base with 200 μl per well) with autologous CD4+ T cells obtained from the PBMC of the corresponding donor using the MACS cell isolation kit (Miltenyi Biotech, Bergisch Gladbach, Germany). The number of CD4+ T cells was kept constant in each well (100,000 cells/well), while the number of DCs varied (5,000, 10,000 and 15,000 DCs in triplicate), giving a T:DC cell ratio of 20:1, 10:1, 6.6:1.
# After culture for 4 days, 0.5 μCi of tritiated thymidine was added to each well. The cells were harvested after 16 hours and the radioactivity incorporated was counted.
# binding of FVIII to VWF = binding of FVIII to VWF (Homo sapiens, UniProt P00451); assay: ELISA for binding of FVIII to VWF; details: FVIII preincubated with mannan (0.01 to 4 mg/ml); FIG. 5b
# Experimental: ELISA plates (Nunc, Roskilde, Denmark) were coated with VWF (VWF, Willefectin, LFB, Les Ulis, France) at 2 μg/ml per well in PBS (pH 7.4) at 37° C. for 1 hour. The plates were saturated with PBS containing 1% skimmed milk and 0.1% Tween 20 for 1 hour at 37° C. FVIII (0.3 μg/ml) was preincubated by itself or with mannan (0.01 to 4 mg/ml) or with BO2C11 (human monoclonal anti-FVIII IgG) (0.05 to 40 μg/ml) in a blocking buffer for 1 hour at 37° C. and then added to the wells coated with VWF and incubated for 1 hour at 37° C. A mouse monoclonal anti-FVIII IgG (mAb6) (3 μg/ml) was incubated at 37° C. for 1 hour. […] No binding of FVIII was observed on the wells which had not been coated.
# [2] = in the presence of mannan, FIG. 2d
# binding of FVIII to VWF, sequence (P00451 20-1667 limits assumed): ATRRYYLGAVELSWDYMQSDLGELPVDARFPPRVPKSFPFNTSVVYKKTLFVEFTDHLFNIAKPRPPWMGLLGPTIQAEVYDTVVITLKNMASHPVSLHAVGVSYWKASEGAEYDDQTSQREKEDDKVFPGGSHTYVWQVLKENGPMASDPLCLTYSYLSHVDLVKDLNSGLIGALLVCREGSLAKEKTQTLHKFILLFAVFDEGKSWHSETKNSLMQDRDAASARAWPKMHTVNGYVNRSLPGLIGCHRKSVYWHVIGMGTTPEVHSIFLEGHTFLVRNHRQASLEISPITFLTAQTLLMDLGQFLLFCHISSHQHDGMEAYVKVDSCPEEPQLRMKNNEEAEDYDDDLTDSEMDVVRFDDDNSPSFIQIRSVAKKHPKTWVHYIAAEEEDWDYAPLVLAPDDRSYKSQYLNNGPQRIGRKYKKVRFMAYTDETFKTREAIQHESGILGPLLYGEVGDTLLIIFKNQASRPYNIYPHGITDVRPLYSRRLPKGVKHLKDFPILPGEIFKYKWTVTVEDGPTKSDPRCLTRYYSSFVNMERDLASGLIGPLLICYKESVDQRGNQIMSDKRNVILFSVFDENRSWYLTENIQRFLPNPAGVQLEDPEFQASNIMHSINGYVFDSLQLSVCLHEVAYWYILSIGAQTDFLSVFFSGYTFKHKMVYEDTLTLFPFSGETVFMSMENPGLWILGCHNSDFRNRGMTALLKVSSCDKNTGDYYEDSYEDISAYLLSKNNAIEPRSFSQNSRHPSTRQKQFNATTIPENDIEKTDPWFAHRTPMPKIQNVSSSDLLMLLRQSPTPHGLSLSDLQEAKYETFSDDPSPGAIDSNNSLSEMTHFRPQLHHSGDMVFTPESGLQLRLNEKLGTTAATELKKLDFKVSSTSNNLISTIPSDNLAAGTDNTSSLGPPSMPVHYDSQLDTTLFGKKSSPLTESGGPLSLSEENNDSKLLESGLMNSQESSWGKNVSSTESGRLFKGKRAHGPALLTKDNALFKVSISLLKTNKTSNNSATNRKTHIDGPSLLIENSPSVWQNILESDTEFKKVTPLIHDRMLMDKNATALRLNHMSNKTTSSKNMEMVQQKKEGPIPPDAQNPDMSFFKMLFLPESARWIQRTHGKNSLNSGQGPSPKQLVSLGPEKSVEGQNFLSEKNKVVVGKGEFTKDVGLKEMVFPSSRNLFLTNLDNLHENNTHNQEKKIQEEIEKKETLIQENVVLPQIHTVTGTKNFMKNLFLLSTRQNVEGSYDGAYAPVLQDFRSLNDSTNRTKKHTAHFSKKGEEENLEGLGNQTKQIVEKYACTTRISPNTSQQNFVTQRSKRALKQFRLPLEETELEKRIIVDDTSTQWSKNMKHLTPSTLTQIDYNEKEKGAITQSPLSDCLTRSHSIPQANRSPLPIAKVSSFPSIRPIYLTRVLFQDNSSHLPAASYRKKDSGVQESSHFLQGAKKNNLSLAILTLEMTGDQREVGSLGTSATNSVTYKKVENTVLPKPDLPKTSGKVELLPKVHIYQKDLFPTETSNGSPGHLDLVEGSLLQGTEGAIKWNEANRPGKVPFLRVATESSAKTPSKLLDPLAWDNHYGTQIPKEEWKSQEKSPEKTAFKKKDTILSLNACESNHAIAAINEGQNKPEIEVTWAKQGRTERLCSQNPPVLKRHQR
# binding of FVIII to VWF, sequence (P00451 1668-2351 limits assumed): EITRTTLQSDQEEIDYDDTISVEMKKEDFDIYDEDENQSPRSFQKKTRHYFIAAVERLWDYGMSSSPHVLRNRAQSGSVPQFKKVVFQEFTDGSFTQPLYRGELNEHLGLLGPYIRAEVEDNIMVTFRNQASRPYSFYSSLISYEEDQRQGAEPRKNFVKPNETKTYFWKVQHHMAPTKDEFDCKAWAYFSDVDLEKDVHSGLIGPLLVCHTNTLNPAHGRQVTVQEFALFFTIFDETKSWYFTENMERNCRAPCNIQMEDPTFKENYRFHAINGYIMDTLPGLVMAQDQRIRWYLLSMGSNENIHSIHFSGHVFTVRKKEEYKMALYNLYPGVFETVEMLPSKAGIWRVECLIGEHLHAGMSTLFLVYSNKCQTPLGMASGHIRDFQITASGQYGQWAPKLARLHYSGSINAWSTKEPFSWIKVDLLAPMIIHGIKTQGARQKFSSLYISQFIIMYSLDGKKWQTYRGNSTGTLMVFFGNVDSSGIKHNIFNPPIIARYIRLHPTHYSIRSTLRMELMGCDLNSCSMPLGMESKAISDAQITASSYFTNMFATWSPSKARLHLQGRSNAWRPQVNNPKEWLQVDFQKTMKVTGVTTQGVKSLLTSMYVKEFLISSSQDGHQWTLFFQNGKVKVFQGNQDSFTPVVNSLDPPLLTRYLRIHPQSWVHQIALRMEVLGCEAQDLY
# FVIII, sequence (P00451 20-1667 limits assumed): as the sequence (P00451 20-1667 limits assumed) above
# FVIII, sequence (P00451 1668-2351 limits assumed): as the sequence (P00451 1668-2351 limits assumed) above
substance,measurement,setting,value
mannan,effect on proclotting activity of FVIII,FVIII,does not block
same,neutralizing effect on the internalization of the antigen (dose dependence),"[1]; FVIII, FVIII-BDD and dextran, FIG. 2e",proportional to the dose
same,inhibition of internalization of α2M,"[1]; excess of RAP or mannan, FIG. 2f",no effect
same,blocking of internalization of dextran,[1]; [2],80%
same,effect on internalization of Lucifer yellow (ly),[1]; [2],not affected
same,inhibition of endocytosis of FVIII-BDD,"[1]; mannan 1 mg/ml, p<0.05",41.3±17.2%
same,inhibition of endocytosis of whole FVIII,"[1]; mannan 1 mg/ml, p<0.05",35.0±10.0%
same,saturation concentration for inhibition of internalization,"[1]; similar for FVIII, FVIII-BDD and dextran, FIG. 2e",100 µg/mL
same,reduction of endocytosis of FVIII by the human DCs,[1]; summary statement in Example 5,up to 40%
same,proliferation of T cells,autologous CD4+ T cells,levels comparable to those of negative controls
same,effect on interaction of FVIII with VWF,binding of FVIII to VWF,does not interfere
